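Results reflect a 48-hour exposure of cells in 96-well plates to compound at five concentrations. GI50 is the concentration that inhibits growth by half.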 Active and inactive are the calls of the source. Rule as the data show it: active = GI50 up to about 1.1 µM and inactive = higher.
How the values were obtained:
Test in all cases: growth of human tumour cells (NCI), 48 h
HL-60 = system: HL-60
CAKI-1 = system: CAKI-1
OVCAR-3 = system: OVCAR-3
ACHN = system: ACHN
OVCAR-8 = system: OVCAR-8
PC-3 = system: PC-3
NCI-H226 = system: NCI-H226
MDA-N = system: MDA-N
SR = system: SR
Hs-578T = system: Hs-578T
SK-MEL-28 = system: SK-MEL-28
A498 = system: A498
SNB-75 = system: SNB-75
M14 = system: M14
SF-295 = system: SF-295
T47D = system: T47D
UACC-257 = system: UACC-257
Malme-3M = system: Malme-3M
DU-145 = system: DU-145
MDA-MB-435 = system: MDA-MB-435
K562 = system: K562
OVCAR-4 = system: OVCAR-4
EKVX = system: EKVX
A549 = system: A549
SK-MEL-2 = system: SK-MEL-2
UO-31 = system: UO-31
NCI/ADR-RES = system: NCI/ADR-RES
SK-MEL-5 = system: SK-MEL-5
HCC 2998 = system: HCC 2998
HCT-116 = system: HCT-116
SF-539 = system: SF-539
LOX IMVI = system: LOX IMVI
CCRF-CEM = system: CCRF-CEM
MOLT-4 = system: MOLT-4
TK-10 = system: TK-10
UACC-62 = system: UACC-62
U-251 = system: U-251
RXF 393 = system: RXF 393
MDA-MB-231 = system: MDA-MB-231
OVCAR-5 = system: OVCAR-5
NCI-H460 = system: NCI-H460
BT-549 = system: BT-549
RPMI-8226 = system: RPMI-8226
NCI-H522 = system: NCI-H522
SN12C = system: SN12C
IGROV-1 = system: IGROV-1
MCF7 = system: MCF7
HCT-15 = system: HCT-15
SF-268 = system: SF-268
HOP-92 = system: HOP-92
COLO 205 = system: COLO 205
KM12 = system: KM12
SNB-19 = system: SNB-19
786-0 = system: 786-0
SW-620 = system: SW-620
SK-OV-3 = system: SK-OV-3
NCI-H23 = system: NCI-H23
HOP-62 = system: HOP-62
HT-29 = system: HT-29

With `Cc1cc(C)c(O)c(CN2CCN(C(C)C)CCN(C(C)C)CC2)c1` the GI50 (HL-60) was 11.7 µM (inactive), the GI50 (CAKI-1) was 75.2 µM (inactive) and the GI50 (OVCAR-3) was 22.2 µM (inactive). The GI50 (ACHN) was 32.1 µM (inactive), the GI50 (OVCAR-8) was 22.2 µM (inactive) and the GI50 (PC-3) was 22.3 µM (inactive). For the same compound, the GI50 (NCI-H226) was 12 µM (inactive), the GI50 (MDA-N) was 20.6 µM (inactive) and the GI50 (SR) was 17.9 µM (inactive). The GI50 (Hs-578T) was 24.5 µM (inactive), the GI50 (SK-MEL-28) was 24.7 µM (inactive) and the GI50 (A498) was > 100 µM (inactive). The GI50 (SNB-75) was 33.7 µM (inactive), the GI50 (M14) was 12.4 µM (inactive) and the GI50 (SF-295) was 15.7 µM (inactive). For the same compound, the GI50 (T47D) was 22 µM (inactive), the GI50 (UACC-257) was 18.5 µM (inactive) and the GI50 (Malme-3M) was 13.8 µM (inactive). The GI50 (DU-145) was 85.7 µM (inactive), the GI50 (MDA-MB-435) was 18 µM (inactive) and the GI50 (K562) was 17.9 µM (inactive). The GI50 (OVCAR-4) was 46.6 µM (inactive), the GI50 (EKVX) was 78.5 µM (inactive) and the GI50 (A549) was 32.3 µM (inactive). The GI50 (SK-MEL-2) was 37.8 µM (inactive), the GI50 (UO-31) was 18.6 µM (inactive) and the GI50 (NCI/ADR-RES) was 25.9 µM (inactive). The GI50 (SK-MEL-5) was > 10 µM (inactive), the GI50 (HCC 2998) was 18.8 µM (inactive) and the GI50 (HCT-116) was 7.41 µM (inactive). For the same compound, the GI50 (SF-539) was 10.4 µM (inactive), the GI50 (LOX IMVI) was 16.1 µM (inactive) and the GI50 (CCRF-CEM) was 19.1 µM (inactive). The GI50 (MOLT-4) was 11.7 µM (inactive), the GI50 (TK-10) was 36.2 µM (inactive) and the GI50 (UACC-62) was 27 µM (inactive). For the same compound, the GI50 (U-251) was 37 µM (inactive), the GI50 (RXF 393) was 16 µM (inactive) and the GI50 (MDA-MB-231) was 48.3 µM (inactive). The GI50 (OVCAR-5) was 18.7 µM (inactive), the GI50 (NCI-H460) was 34.7 µM (inactive) and the GI50 (BT-549) was 22 µM (inactive). For the same compound, the GI50 (RPMI-8226) was 21.9 µM (inactive), the GI50 (NCI-H522) was 16.1 µM (inactive) and the GI50 (SN12C) was 27.5 µM (inactive). For the same compound, the GI50 (IGROV-1) was 2.26 µM (inactive), the GI50 (MCF7) was 20.8 µM (inactive) and the GI50 (HCT-15) was 46.7 µM. For the same compound, the GI50 (SF-268) was 54.3 µM (inactive), the GI50 (HOP-92) was 13.7 µM (inactive) and the GI50 (COLO 205) was 18.6 µM (inactive). The GI50 (KM12) was 17 µM (inactive), the GI50 (SNB-19) was 63.1 µM (inactive) and the GI50 (786-0) was 42.9 µM (inactive). For the same compound, the GI50 (SW-620) was 42.8 µM (inactive).

In the case of `Clc1ccc(Nc2nc(Cl)c3nc[nH]c3n2)cc1Cl`, the GI50 (HL-60) is reported as 18.2 µM (inactive), the GI50 (CAKI-1) is reported as 3.29 µM (inactive) and the GI50 (OVCAR-3) is reported as 19.1 µM (inactive). The GI50 (ACHN) was 24.9 µM (inactive), the GI50 (OVCAR-8) was 35.4 µM (inactive) and the GI50 (PC-3) was 14.7 µM (inactive). The GI50 (NCI-H226) was 38.4 µM (inactive), the GI50 (MDA-N) was 39.8 µM (inactive) and the GI50 (SR) was 19.2 µM (inactive). For the same compound, the GI50 (Hs-578T) was 22.1 µM (inactive), the GI50 (A498) was 18.4 µM (inactive) and the GI50 (SNB-75) was 18.8 µM (inactive). For the same compound, the GI50 (M14) was 36.7 µM (inactive), the GI50 (SK-OV-3) was 33.2 µM (inactive) and the GI50 (SF-295) was 23.7 µM (inactive). For the same compound, the GI50 (T47D) was 14.2 µM (inactive), the GI50 (UACC-257) was 31.8 µM (inactive) and the GI50 (Malme-3M) was 32.3 µM (inactive). For the same compound, the GI50 (NCI-H23) was 25.4 µM (inactive), the GI50 (DU-145) was 28.5 µM (inactive) and the GI50 (MDA-MB-435) was 26.9 µM (inactive). The GI50 (K562) was 37.2 µM (inactive), the GI50 (OVCAR-4) was 52.7 µM (inactive) and the GI50 (EKVX) was 1.97 µM (inactive). For the same compound, the GI50 (A549) was 30.1 µM (inactive), the GI50 (SK-MEL-2) was 21.8 µM (inactive) and the GI50 (UO-31) was 26.9 µM (inactive). The GI50 (NCI/ADR-RES) was 35.6 µM (inactive), the GI50 (SK-MEL-5) was 20.1 µM (inactive) and the GI50 (HCC 2998) was 16.9 µM (inactive). The GI50 (HCT-116) was 29.5 µM (inactive), the GI50 (SF-539) was > 10 µM (inactive) and the GI50 (LOX IMVI) was 13.4 µM (inactive). The GI50 (CCRF-CEM) was 18.7 µM (inactive), the GI50 (MOLT-4) was 24 µM (inactive) and the GI50 (TK-10) was 32.4 µM (inactive). For the same compound, the GI50 (UACC-62) was 33.6 µM (inactive), the GI50 (U-251) was 29.1 µM (inactive) and the GI50 (RXF 393) was 21 µM (inactive). For the same compound, the GI50 (HOP-62) was 15.9 µM (inactive), the GI50 (MDA-MB-231) was 21.1 µM (inactive) and the GI50 (OVCAR-5) was 48.8 µM (inactive). For the same compound, the GI50 (NCI-H460) was 14.5 µM (inactive), the GI50 (BT-549) was 15.6 µM (inactive) and the GI50 (RPMI-8226) was 29 µM (inactive). The GI50 (NCI-H522) was 18.7 µM (inactive), the GI50 (SN12C) was 43.8 µM (inactive) and the GI50 (IGROV-1) was 22.2 µM (inactive). For the same compound, the GI50 (MCF7) was 30.5 µM (inactive), the GI50 (HCT-15) was 21 µM and the GI50 (SF-268) was 22.1 µM (inactive). The GI50 (HOP-92) was 23.4 µM (inactive), the GI50 (COLO 205) was 18.6 µM (inactive) and the GI50 (KM12) was 18.1 µM (inactive). For the same compound, the GI50 (HT-29) was 18.2 µM (inactive), the GI50 (SNB-19) was 37.2 µM (inactive) and the GI50 (786-0) was 15.8 µM (inactive). For the same compound, the GI50 (SW-620) was 38 µM (inactive).
